# Results: patent US20240280565A1, “EX VIVO HUMAN MODEL INTENDED FOR EVALUATING ALLERGIC OR PSEUDO-ALLERGIC INFLAMMATORY POTENTIAL” (GENOSKIN, priority 2021, published 2024)
# Non-standard residues stand in square brackets, D forms with d. Residues, ends and D or L forms follow the SMILES beside them. dPhe(4-Cl) = N[C@H](Cc1ccc(Cl)cc1)C(=O)O; d2Nal = N[C@H](Cc1ccc2ccccc2c1)C(=O)O; dCit = NC(=O)NCCC[C@@H](N)C(=O)O; d3Pal = N[C@H](Cc1cccnc1)C(=O)O
# Test system: skin explant
# Assay: Inflammatory potential: cytokine assay in culture medium or matrix of injected skin explant
# Format: cell-based, human
# Conditions: 100 μL CETROTIDE solution, cetrorelix 0.25 mg/l mL, injected into adipose tissue of explant
# Method: A CETROTIDE solution of 100 μL with a cetrorelix concentration of 0.25 mg/l mL (luteinizing hormone inhibitor that competes by binding to its receptor) was injected into the adipose tissue of an explant, as described previously, using a syringe and a 12 mm long, 27 G needle. As a negative and positive control, 100 μL of a PBS solution and 100 μL of a concentrated solution of compound 48/80 (50 μg/mL, an MRGPRX2 agonist), respectively, were each injected into the adipose tissue of different explants, as described previously.
# The culture medium or matrix supporting the explants are collected and an assay of cytokines is conducted using an ELISA-type methods or any other type of method intended to detect and quantify the presence of cytokines.
smiles,measurement,value
CC(=O)N[C@H](Cc1ccc2ccccc2c1)C(=O)N[C@H](Cc1ccc(Cl)cc1)C(=O)N[C@H](Cc1cccnc1)C(=O)N[C@@H](CO)C(=O)N[C@@H](Cc1ccc(O)cc1)C(=O)N[C@H](CCCNC(N)=O)C(=O)N[C@@H](CC(C)C)C(=O)N[C@@H](CCCNC(=N)N)C(=O)N1CCC[C@H]1C(=O)N[C@H](C)C(N)=O [cetrorelix] (Ac-[d2Nal][dPhe(4-Cl)][d3Pal]SY[dCit]LRP[dA]-NH2),Inflammatory potential (cytokines),confirmed the inflammatory potential
